Results on four molecules are retold here after the NIST ThermoML archive (doi:10.1016/j.fluid.2007.10.013).

This data set is described as follows: xn = mol fraction of the nth substance listed. As to conditions: 101 kPa, Liquid, Taylor dispersion method, x1 = 0.

Each structure is given as a SMILES string.

With `NC(CO)C(=O)O` (centres undefined) [(.+-.)-serine] + O, the binary diffusion coefficient is, setting by setting: (293.2 K) 7.72e-10 m2/s; (298.2 K) 8.8e-10 m2/s; (303.2 K) 9.91e-10 m2/s; (313.2 K) 1.26e-09 m2/s; (323.2 K) 1.55e-09 m2/s; (333.2 K) 1.88e-09 m2/s.

With `NC(CCO)C(=O)O` (stereo not drawn) [DL-2-amino-4-hydroxybutanoic acid] + O, the binary diffusion coefficient (293.2 K) was determined as 7.26e-10 m2/s; the binary diffusion coefficient (298.2 K) is 8.39e-10 m2/s; the binary diffusion coefficient (303.2 K) is 9.39e-10 m2/s; the binary diffusion coefficient (313.2 K) stood at 1.19e-09 m2/s; the binary diffusion coefficient (323.2 K) turned out to be 1.47e-09 m2/s; the binary diffusion coefficient (333.2 K) came out at 1.78e-09 m2/s.

Turning to `C[C@H](O)[C@H](N)C(=O)O` [DL-allothreonine] + O, the binary diffusion coefficient is, setting by setting: (293.2 K) 6.97e-10 m2/s; (298.2 K) 7.96e-10 m2/s; (303.2 K) 9.06e-10 m2/s; (313.2 K) 1.14e-09 m2/s; (323.2 K) 1.42e-09 m2/s; (333.2 K) 1.72e-09 m2/s.

As to `C[C@@H](O)[C@H](N)C(=O)O` [DL-threonine] + O, the binary diffusion coefficient is 6.91e-09 m2/s (293.2 K); 7.99e-09 m2/s (298.2 K); 9.04e-09 m2/s (303.2 K); 1.14e-08 m2/s (313.2 K); 1.43e-08 m2/s (323.2 K); 1.72e-08 m2/s (333.2 K).
